Data on 1 compound can be found in patent US5958947A, “DNA-affinic hypoxia selective cytotoxins” (priority 1996, dated 1999).

By IC50 is commonly meant the concentration that inhibits the measured activity by half. A higher IC50 goes with weaker potency in that assay.

In one series the test system is solid tumors. Particulars: cited from earlier work.
In series [1] the test system is V79 cells. Briefly: Drug uptake in the presence of ammonium chloride. In kind it is cell-based, Chinese hamster. As to conditions: aerobic V79 cells, 60 μM input, 50 mM NH4Cl (stated for THNLA-1). The method, then: Uptake measurements in the presence of the lysosomotropic agent ammonium chloride (NH4 Cl) also were performed in a manner as previously described.
Concentrations were determined by UV spectrophotometry at 330 nm. The plotted points represent the mean of two experiments.

The target in the next series is T1, calf thymus Topo I (Bos taurus, UniProt F1MN93).
T1 construct: purchased TopoGEN, Inc., Columbus, Ohio; host or cells: calf thymus
T1 sequence (F1MN93 1-767): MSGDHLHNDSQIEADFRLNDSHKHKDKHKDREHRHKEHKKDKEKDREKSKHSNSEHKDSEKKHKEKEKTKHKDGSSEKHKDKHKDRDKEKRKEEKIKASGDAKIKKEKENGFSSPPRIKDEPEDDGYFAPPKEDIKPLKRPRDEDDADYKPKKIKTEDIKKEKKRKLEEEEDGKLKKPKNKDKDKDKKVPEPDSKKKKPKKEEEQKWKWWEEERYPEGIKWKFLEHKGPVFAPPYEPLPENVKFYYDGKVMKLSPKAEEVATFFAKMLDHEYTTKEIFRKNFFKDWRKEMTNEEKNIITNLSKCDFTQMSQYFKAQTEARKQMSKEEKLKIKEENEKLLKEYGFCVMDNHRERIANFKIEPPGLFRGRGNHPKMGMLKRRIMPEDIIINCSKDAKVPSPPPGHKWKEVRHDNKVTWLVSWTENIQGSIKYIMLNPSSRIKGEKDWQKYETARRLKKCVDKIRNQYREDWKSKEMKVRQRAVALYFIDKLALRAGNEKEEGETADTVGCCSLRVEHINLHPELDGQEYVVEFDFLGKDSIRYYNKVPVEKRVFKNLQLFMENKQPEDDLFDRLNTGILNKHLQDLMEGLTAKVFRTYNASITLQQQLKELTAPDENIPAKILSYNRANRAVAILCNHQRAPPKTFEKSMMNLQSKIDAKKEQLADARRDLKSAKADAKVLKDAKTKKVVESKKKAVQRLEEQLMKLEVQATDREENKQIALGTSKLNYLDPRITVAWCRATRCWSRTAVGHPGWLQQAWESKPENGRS
Put plainly: Topoisomerase I interaction (relaxation of supercoiled DNA). It counts as biochemical. The method, then: In particular, a Topo I drug screening kit (TopoGEN, Inc., Columbus, Ohio) was used to assay the topoisomerase I THNLA-1 interaction. […] Camptothecin is a Topoisomerase I poison used as an anticancer drug. Camptothecin stabilizes the Topo I-DNA cleavable complex, and therefore prevents the resealing of DNA by Topo-I.
Individual reaction mixtures were heated for 30 minutes at 37° C. on a heating block, and then 2 μl of 10% SDS - proteinase K solution was added to each reaction mixture. The resulting reaction mixtures then were heated for an additional 30 minutes at 37° C. The reaction mixtures in a loading buffer were extracted with CHCl3 prior to submarine electrophoresis on a 1% agarose gel. The DNA bands were observed visually by staining with ethidium bromide (0.5 μg/ml).

Series [2] can be described thus: Partition coefficient in octanol/water. It counts as physicochemical. The procedure:
The partition coefficient of the hypoxia selective cytotoxins of the present invention were determined by the method of T. Fujita et al., J. Am. Chem. Soc., 86, 5175-5180 (1964), incorporated herein by reference.

Series [3] in a line: Acute aerobic and hypoxic cytotoxicity (colony formation). In kind it is cell-based, Chinese hamster. Particulars: chinese hamster, aerobic v79 cells, V79 cells, aerobic, 1 hour, 37° C.; 50% inhibition of clonogenicity. The method, then: (§1) Samples of V79 Chinese hamster lung cells used in the following experiments were prepared as follows. V79 cells, exponentially growing as monolayer cultures in RPMI 1640 medium (Mediatech) supplemented with 10% fetal calf serum, were trypsinized, centrifuged for 5 min, harvested, then suspended in 25 ml Erlenmeyer flasks fitted with rubber caps at 5×10^5 cells/ml (5 ml). Individual flasks either were shaken (100 rpm) at 37° C. under aerobic conditions or made hypoxic by gassing with a 95% N2 (nitrogen)/5% CO2 (carbon dioxide) humidified gas mixture for 1 hour.
(§2) To determine the fraction of surviving cells, samples were removed, diluted and plated to provide 2×10^2 to 2×10^4 cells/well on 60 mm Linbro multi-well plates (Flow Laboratories, McLean, Virginia). The plates were incubated at 37° C. for 6 days, stained with crystal violet and examined for colony formation. Colonies of 50 cells or greater were counted. Each plotted point in FIGS. 1 and 2 represent the mean of three or four replicate experiments.

Series [4] relates to V79 Chinese hamster lung cells. The series is described as above. It counts as cell-based. The method, then:
as §1, §2

Series [5] relates to V79 Chinese hamster lung cells. Put plainly: Radiosensitization of V79 cells. It counts as cell-based. Particulars: for EC (SER 1.6): Cricetulus griseus. The method, then: as §1
Radiosensitization studies were performed on V79 cells in a manner similar to the acute toxicity experiments, except that the survival fraction was determined after a predetermined radiation dose. […] One Gy is equal to 100 rads, wherein one rad is the quantity of ionizing radiation that results in the absorption of 100 ergs of energy per gram of irradiated material. Hypoxia was maintained throughout irradiation. […] Sensitization enhancement ratios (SER) were determined at a 10% survival level. […] The plotted points in FIGS. 3 and 4 represent the mean of 2 or 3 replicate experiments.

The subject of series [6] is V79 cells. Put plainly: Isoeffective to the oxygen dose (IsD). As to conditions: Cricetulus griseus, V79, 1 h, 7.5 Gy, 1 hour at 37° C.; read-out: Isoeffective to the oxygen dose at 7.5 Gy: IsD(7.5). In kind it is cell-based, Chinese hamster. From the text: The survival fraction under hypoxic conditions (plotted versus compound concentration) meets the aerobic survival fraction (radiation toxicity) at the IsD. The IsD value is a useful indicator of the overall potency of a compound as a sensitizer and cytotoxin of hypoxic cells. IsD is especially useful when comparing different compounds for hypoxic cytotoxicity and radiosensitizing efficacy.
FIGS. 5 and 6 illustrate the IsD at 7.5 Gy (FIG. 5A) and 20 Gy (FIG. 5B). FIGS. 5A and 6A include a comparison to the prior art NLA-1 compound. V79 cells were irradiated at 7.5 Gy or 20 Gy after a 1 hour exposure under hypoxia (symbols) or air (straight line), at various drug concentrations. No toxicity or radiosensitization for any tested compound was observed under aerobic conditions over the tested concentration ranges. IsD values were calculated from the intersections of the survival fractions of the hypoxic curves with the survival fraction in air. All data points in FIGS. 5 and 6 represent the mean of two replicate experiments.

Several values for one entry are separate records, joined by “and”; a condition that tells them apart may be missing. Identical values can stand only once. Like-named read-outs stand apart in the source and are kept apart here.

For the compound `Cl.O=[N+]([O-])c1nccn1CCCNc1c2ccccc2nc2ccccc12` [NLA-1, 9-[3-(2-nitro-1-imidazolyl)propylamino]acridine hydrochloride, reference compound], the “radiosensitization in vivo / in solid tumors (prior art)” value in the series on solid tumors is “failure of NLA-1 as radiosensitizer in solid tumors”. Moreover, the “factor of decrease of Ci in the presence of NH4Cl” value in the series with V79 cells [1] is “about 3”. Also, the “Topo I-dependent single-stranded DNA cleavage” value at calf thymus Topo I was “observed”. Moreover, the IC50 is ~12 µM and 12 µM against calf thymus Topo I (Topo I inhibition (50%)-dose, Topo I-induced relaxation of supercoiled DNA); 15 µM in series [4] (Cricetulus griseus, V79, 1 h, V79 cells, hypoxia, 1 hour, 37° C., 50% inhibition of clonogenicity). The “Partition coefficient in octanol/water: PCo/w” value in series [2] is recorded as 0.07. In series [2] (read-out: Partition coefficient in octanol/water: PCo/w (converted)), the logP was -1.15. The same compound had an IC50 at 1 h in series [3] of 84 µM. For the same compound, the “Hypoxic selectivity (differential aerobic/hypoxic toxicity): IC50/A,1h /IC50/H,1h” value in series [4] (V79 cells, 1 hour, 37° C.) was 5.5. In addition, the “cytotoxicity / selectivity relative to THNLA-1 or NLA-1” value in series [4] (from IC50/H, IC50/A and their ratio) is recorded as “about a two times more potent hypoxic cytotoxin”. Also, the EC (SER 1.6) in series [5] (1 h, concentration yielding an SER of 1.6, hypoxic V79 cells, read-out: Hypoxic radiosensitizing potency: C1.6) came to 8 µM; in series [5] (hypoxic radiosensitization, V79 cells (tables), read-out: Intracellular concentration at C1.6: C1.6i) it was 885 µM; in series [5] (hypoxic radiosensitization, V79 cells, read-out: Intracellular concentration for an SER of 1.6: C1.6i), 885 µM. Further, the “radioprotection under aerobic conditions” value in series [5] (aerobic) is on record as “afforded radioprotection under aerobic conditions”. Also, the EC (isoeffective to oxygen at 7.5 Gy) in the series on V79 cells [6] is ~11 µM.
